Results published in PubChem BioAssay AID330 (DTP/NCI, 2004).
Inconclusive results and toxic doses are left out. Rule for the calls: active = survival T/C of 150% or more; inactive = T/C below 125% in these data.

System: P388 leukemia ip, CD2F1 mice, survival T/C
Assay: NCI In Vivo Anticancer Drug Screen. Data for tumor model P388 Leukemia (intraperitoneal) in CD2F1 (CDF1) mice
Settings: endpoint: median survival time, higher = longer survival
How it was run: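 Mice carrying the transplanted tumor received test compound or vehicle. Survival was recorded in each group, and the value is the treated-group measurement divided by that of the vehicle-treated control group.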

[1] = dose: 100.0 mg/kg/injection, schedule: Q01DX001 (ip), vehicle: saline
[2] = dose: 200.0 mg/kg/injection, schedule: Q01DX001 (ip), vehicle: saline
[3] = dose: 400.0 mg/kg/injection, schedule: Q01DX001 (ip), vehicle: saline

Measured: T/C

N#CC1=NOC(C(N)C(=O)O)C1 (stereo not given)
inactive: dose: 50.0 mg/kg/injection, schedule: Q04DX002 (ip), vehicle: saline 103 % of control | dose: 100.0 mg/kg/injection, schedule: Q04DX002 (ip), vehicle: saline 100 % of control | dose: 200.0 mg/kg/injection, schedule: Q04DX002 (ip), vehicle: saline 98 % of control

CCN(CC)C(=S)SCc1cc(C)c(O)c(C)c1
inactive: [1] 98 % of control | [2] 100 % of control | [3] 100 % of control

COc1cc2ccccc2c2c1OP(=O)(O)Oc1c(OC)cc3ccccc3c1-2
inactive: dose: 100.0 mg/kg/injection, schedule: Q01DX001 (ip), vehicle: saline with Tween-80 100 % of control | dose: 200.0 mg/kg/injection, schedule: Q01DX001 (ip), vehicle: saline with Tween-80 92 % of control | dose: 400.0 mg/kg/injection, schedule: Q01DX001 (ip), vehicle: saline with Tween-80 114 % of control

O=[N+]([O-])c1cc2c(cc1I)C1C(C3C2C2(Cl)C(Cl)=C(Cl)C3(Cl)C2(Cl)Cl)C2(Cl)C(Cl)=C(Cl)C1(Cl)C2(Cl)Cl (stereo not given)
inactive: dose: 50.0 mg/kg/injection, schedule: Q01DX009 (ip), vehicle: saline 108 % of control | dose: 100.0 mg/kg/injection, schedule: Q01DX009 (ip), vehicle: saline 106 % of control | dose: 200.0 mg/kg/injection, schedule: Q01DX009 (ip), vehicle: saline 106 % of control

C=C1CC2(CCCCC2C)OC1=O (stereo not given)
inactive: [1] 101 % of control | [2] 101 % of control | [3] 100 % of control

CC(c1ccccc1)C(OC(=O)c1ccc([N+](=O)[O-])cc1)c1ccccc1 (stereo not given)
inactive: dose: 12.5 mg/kg/injection, schedule: Q01DX009 (ip), vehicle: saline with Tween-80 100 % of control | dose: 25.0 mg/kg/injection, schedule: Q01DX009 (ip), vehicle: saline with Tween-80 100 % of control | dose: 50.0 mg/kg/injection, schedule: Q01DX009 (ip), vehicle: saline with Tween-80 90 % of control

Fc1ccc(CSC(=S)Nc2ccc(I)cc2)cc1
inactive: dose: 50.0 mg/kg/injection, schedule: Q01DX009 (ip), vehicle: suspension in saline 97 % of control | dose: 100.0 mg/kg/injection, schedule: Q01DX009 (ip), vehicle: suspension in saline 93 % of control | dose: 200.0 mg/kg/injection, schedule: Q01DX009 (ip), vehicle: suspension in saline 103 % of control

CC1=N/C(=C\c2cccc(Br)c2)C(=O)O1
inactive: dose: 50.0 mg/kg/injection, schedule: Q01DX005 (ip), vehicle: Klucel (hydroxypropylcellulose) (HPC) 98 % of control | dose: 100.0 mg/kg/injection, schedule: Q01DX005 (ip), vehicle: Klucel (hydroxypropylcellulose) (HPC) 98 % of control | dose: 200.0 mg/kg/injection, schedule: Q01DX005 (ip), vehicle: Klucel (hydroxypropylcellulose) (HPC) 98 % of control

COc1ccc(-c2c3c(cc4cc5c(cc24)OCO5)C(=O)OC3)cc1OC
inactive: dose: 12.0 mg/kg/injection, schedule: Q01DX009 (ip), vehicle: Klucel (hydroxypropylcellulose) (HPC) 110 % of control | dose: 24.0 mg/kg/injection, schedule: Q01DX009 (ip), vehicle: Klucel (hydroxypropylcellulose) (HPC) 91 % of control | dose: 48.0 mg/kg/injection, schedule: Q01DX009 (ip), vehicle: Klucel (hydroxypropylcellulose) (HPC) 86 % of control | dose: 96.0 mg/kg/injection, schedule: Q01DX009 (ip), vehicle: Klucel (hydroxypropylcellulose) (HPC) 88 % of control

O=C(c1cc2c(cc1Br)OCO2)N1CCCc2ccccc21
inactive: dose: 25.0 mg/kg/injection, schedule: Q01DX009 (ip), vehicle: other 100 % of control | dose: 50.0 mg/kg/injection, schedule: Q01DX009 (ip), vehicle: other 97 % of control | dose: 100.0 mg/kg/injection, schedule: Q01DX009 (ip), vehicle: other 102 % of control | dose: 200.0 mg/kg/injection, schedule: Q01DX009 (ip), vehicle: other 97 % of control | dose: 400.0 mg/kg/injection, schedule: Q01DX009 (ip), vehicle: other 93 % of control

CCCC(C)C(CC)C(=O)NC(N)=O (stereo not given)
inactive: dose: 12.5 mg/kg/injection, schedule: Q01DX009 (ip), vehicle: Klucel (hydroxypropylcellulose) (HPC) 101 % of control | dose: 25.0 mg/kg/injection, schedule: Q01DX009 (ip), vehicle: Klucel (hydroxypropylcellulose) (HPC) 102 % of control | dose: 50.0 mg/kg/injection, schedule: Q01DX009 (ip), vehicle: Klucel (hydroxypropylcellulose) (HPC) 98 % of control | dose: 100.0 mg/kg/injection, schedule: Q01DX009 (ip), vehicle: Klucel (hydroxypropylcellulose) (HPC) 101 % of control

O=S(=O)(Nc1cccc(Cl)c1)c1ccc(F)cc1
inactive: dose: 60.0 mg/kg/injection, schedule: Q01DX005 (ip), vehicle: saline with Tween-80 96 % of control | dose: 120.0 mg/kg/injection, schedule: Q01DX005 (ip), vehicle: saline with Tween-80 99 % of control | dose: 240.0 mg/kg/injection, schedule: Q01DX005 (ip), vehicle: saline with Tween-80 101 % of control
